What was measured:
MDA-MB-231 [1] = experiment: Antiproliferative activity against human MDA-MB-231 cells; assay type: functional, cell-based
[2] = Metabolic stability of the compound in mouse liver microsomes assessed as parent compound remaining measured after 30 mins; assay type: ADME, Microsome; conditions: for remaining at 0.5 h: liver microsomes, read-out: Stabilty
[3] = Metabolic stability of the compound in rat liver microsomes assessed as parent compound remaining measured after 30 mins; assay type: ADME, Microsome; conditions: read-out: Stabilty
[4] = Metabolic stability of the compound in human liver microsomes assessed as parent compound remaining measured after 30 mins; assay type: ADME, Microsome; conditions: read-out: Stabilty
hERG (KCNH2) = hERG (KCNH2) (Homo sapiens, UniProt Q12809); experiment: Inhibition of human ERG at 10 uM by automated patch method relative to control
[5] = target: T1, Eukaryotic initiation factor 4A-I (Homo sapiens, UniProt P60842); experiment: Inhibition of eIF4A (unknown origin) assessed as inhibition of translation of RNA featuring highly structured 5'-UTR of c-Myc
[6] = target: T1, Eukaryotic initiation factor 4A-I; experiment: Inhibition of eIF4A (unknown origin) assessed as inhibition of translation of RNA featuring short 5'-UTR of tubulin
Homo sapiens = organism: Homo sapiens; experiment: Selectivity ratio of IC50 for inhibition of eIF4A (unknown origin) assessed as inhibition of translation of RNA featuring short 5'-UTR of tubulin to IC50 for inhibition of eIF4A (unknown origin) assessed as inhibition of translation of RNA featuring highly structured 5'-UTR of c-Myc
[7] = Permeability of the compound across apical to basolateral side in human Caco-2 cells; assay type: ADME, cell-based; conditions: read-out: permeability
[8] = Efflux ratio of permeability in human Caco-2 cells; assay type: ADME, cell-based
MDA-MB-231 [9] = experiment: Antiproliferative activity against human MDA-MB-231 cells assessed as inhibition of cell viability incubated for 72 hrs by CellTiter-Glo assay; assay type: functional, cell-based; conditions: MDA-MB-231, 72 h

hERG (KCNH2), sequence (Q12809 whole entry): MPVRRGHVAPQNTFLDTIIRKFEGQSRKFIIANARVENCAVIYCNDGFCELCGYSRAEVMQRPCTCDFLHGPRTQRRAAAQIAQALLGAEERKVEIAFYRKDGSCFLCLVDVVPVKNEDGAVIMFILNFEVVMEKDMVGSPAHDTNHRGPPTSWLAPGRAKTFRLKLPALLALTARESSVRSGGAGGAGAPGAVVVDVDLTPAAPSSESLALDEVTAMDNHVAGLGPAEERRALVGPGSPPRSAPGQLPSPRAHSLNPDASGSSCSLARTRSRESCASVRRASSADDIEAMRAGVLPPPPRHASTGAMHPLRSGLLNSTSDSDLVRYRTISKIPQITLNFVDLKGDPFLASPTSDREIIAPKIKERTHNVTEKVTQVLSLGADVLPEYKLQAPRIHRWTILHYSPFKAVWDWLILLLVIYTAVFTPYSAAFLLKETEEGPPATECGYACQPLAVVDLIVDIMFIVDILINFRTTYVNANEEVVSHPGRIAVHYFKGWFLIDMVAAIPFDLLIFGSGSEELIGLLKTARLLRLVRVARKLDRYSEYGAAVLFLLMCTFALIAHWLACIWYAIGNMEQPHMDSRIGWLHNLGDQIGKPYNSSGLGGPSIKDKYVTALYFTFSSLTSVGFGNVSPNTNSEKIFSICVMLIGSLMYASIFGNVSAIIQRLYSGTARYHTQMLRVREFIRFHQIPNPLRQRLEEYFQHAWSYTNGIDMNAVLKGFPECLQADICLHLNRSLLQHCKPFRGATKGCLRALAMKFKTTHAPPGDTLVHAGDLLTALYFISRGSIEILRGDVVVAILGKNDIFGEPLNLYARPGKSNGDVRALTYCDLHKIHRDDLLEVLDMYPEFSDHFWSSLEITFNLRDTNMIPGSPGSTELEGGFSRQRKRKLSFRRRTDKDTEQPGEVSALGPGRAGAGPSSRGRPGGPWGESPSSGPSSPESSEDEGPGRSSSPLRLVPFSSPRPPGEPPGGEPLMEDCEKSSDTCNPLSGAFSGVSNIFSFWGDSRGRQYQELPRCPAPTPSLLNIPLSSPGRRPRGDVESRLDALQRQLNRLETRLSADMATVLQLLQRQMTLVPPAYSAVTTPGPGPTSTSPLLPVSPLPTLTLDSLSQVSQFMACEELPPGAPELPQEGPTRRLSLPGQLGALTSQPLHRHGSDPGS
T1 sequence (P60842 whole entry): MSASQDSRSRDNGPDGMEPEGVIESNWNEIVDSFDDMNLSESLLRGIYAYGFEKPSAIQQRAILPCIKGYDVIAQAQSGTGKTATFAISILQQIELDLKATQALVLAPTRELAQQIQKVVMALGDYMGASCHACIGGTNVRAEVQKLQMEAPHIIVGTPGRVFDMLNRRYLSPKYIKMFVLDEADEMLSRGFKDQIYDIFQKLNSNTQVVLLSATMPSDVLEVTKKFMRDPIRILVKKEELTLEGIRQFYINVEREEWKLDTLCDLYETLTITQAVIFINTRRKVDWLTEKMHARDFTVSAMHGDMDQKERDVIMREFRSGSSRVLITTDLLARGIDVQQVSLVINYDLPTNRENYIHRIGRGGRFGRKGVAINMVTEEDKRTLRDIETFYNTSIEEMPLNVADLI

Row | IC50 [5] | IC50 [6] | Ratio IC50 (Homo sapiens) | Stabilty ([2]; microsomes, 0.5 h) | EC50 (MDA-MB-231 [9]) | SMILES | EC50 (MDA-MB-231 [1]) | remaining at 0.5 h [2] | remaining at 0.5 h [3] | remaining at 0.5 h [4] | inhibition at 10 µM (hERG (KCNH2)) | Papp A→B [7] | efflux ratio [8]
1 | 5.6 nM | 22 nM | 3.9 |  |  | COc1cncc2c1[C@]1(O)[C@@H](CN)C[C@@H](c3ccccc3)[C@]1(c1ccc(C#N)cc1)O2 (racemic) | 11 nM | 108% | 85% | 102% | 54% | 0.13 ×10⁻⁶ cm/s | 58
2 | 2.3 nM | 11 nM | 4.8 |  |  | COc1cncc2c1[C@]1(O)[C@@H](CNC3COC3)[C@H](CO)[C@@H](c3ccccc3)[C@]1(c1ccc(Br)cc1)O2 (racemic) | 8 nM |  |  |  |  |  | 
3 |  |  |  |  |  | COc1cncc2c1[C@]1(O)[C@@H](CNCC(F)F)[C@H](CO)[C@@H](c3ccccc3)[C@]1(c1ccc(C#N)cc1)O2 (racemic) | 21 nM | 1% | 0% | 19% | 27% | 0.82 ×10⁻⁶ cm/s | 6.7
4 |  |  |  |  |  | COc1cncc2c1[C@]1(O)[C@@H](CNCc3ccnn3C)[C@H](CO)[C@@H](c3ccccc3)[C@]1(c1ccc(C#N)cc1)O2 (racemic) | 38 nM | 1% | 2% | 1% |  | 0.19 ×10⁻⁶ cm/s | 76
5 | 5 nM | 21 nM | 4.2 | 123% |  | COc1cncc2c1[C@]1(O)[C@@H](CN)C[C@@H](c3ccccc3)[C@]1(c1ccc(Br)cc1)O2 (racemic) | 15 nM |  | 58% | 99% |  | 0.43 ×10⁻⁶ cm/s | 13
6 |  |  |  |  |  | COc1cncc2c1[C@]1(O)[C@@H](CN3CC4(COC4)C3)[C@H](CO)[C@@H](c3ccccc3)[C@]1(c1ccc(C#N)cc1)O2 (racemic) | 19 nM | 67% | 48% | 92% |  | 0.19 ×10⁻⁶ cm/s | 86
7 |  |  |  |  |  | COc1cncc2c1[C@]1(O)[C@@H](CN(C)C)[C@H](CO)[C@@H](c3ccccc3)[C@]1(c1ccc(C#N)cc1)O2 (racemic) | 8 nM | 67% | 61% | 77% | 79% | 0.4 ×10⁻⁶ cm/s | 33
8 |  |  |  |  | 28 nM | N#Cc1ccc([C@@]23Oc4cc(Cl)cnc4[C@]2(O)[C@@H](CN)C[C@H]3c2ccccc2)cc1 (racemic) |  |  |  |  |  |  | 
9 |  |  |  |  |  | COc1cncc2c1[C@]1(O)[C@@H](CN3CCOCC3)[C@H](CO)[C@@H](c3ccccc3)[C@]1(c1ccc(C#N)cc1)O2 (racemic) | 81 nM | 41% | 27% | 51% | < 10% | 2.2 ×10⁻⁶ cm/s | 7
10 |  |  |  |  |  | COc1cncc2c1[C@]1(O)[C@@H](CNC3COC3)[C@H](CO)[C@@H](c3ccccc3)[C@]1(c1ccc(C#N)cc1)O2 (racemic) | 29 nM | 24% | 18% | 61% | < 10% | 0.73 ×10⁻⁶ cm/s | 12
11 |  |  |  |  |  | COc1cncc2c1[C@]1(O)[C@@H](CN)[C@H](CO)[C@@H](c3ccccc3)[C@]1(c1ccc(C#N)cc1)O2 (racemic) | 106 nM | 83% | 97% | 95% | < 10% | < 0.07 ×10⁻⁶ cm/s | > 4

Row | SMILES | IC50 [5] | IC50 [6] | Ratio IC50 (Homo sapiens) | Stabilty ([2]; microsomes, 0.5 h) | EC50 (MDA-MB-231 [9]) | EC50 (MDA-MB-231 [1]) | remaining at 0.5 h [2] | remaining at 0.5 h [3] | remaining at 0.5 h [4] | inhibition at 10 µM (hERG (KCNH2)) | Papp A→B [7] | efflux ratio [8]
12 | COc1cncc2c1[C@]1(O)[C@@H](CN3CCOCC3)[C@H](CO)[C@@H](c3ccccc3)[C@]1(c1ccc(Br)cc1)O2 (racemic) | 10 nM | 32 nM | 3.2 |  |  | 39 nM | 1% | 0% | 6% | 12% |  | 
13 | COc1cncc2c1[C@]1(O)[C@@H](CN)[C@H](CO)[C@@H](c3ccccc3)[C@]1(c1ccc(Br)cc1)O2 (racemic) | 25 nM | 89 nM | 3.6 |  |  | 48 nM | 107% | 95% | 102% | 37% | 0.04 ×10⁻⁶ cm/s | 61
